These results are taken from patent US20220241314A1, “COMPOSITIONS AND METHODS FOR TREATMENT OF HEPATITIS B VIRUS INFECTION” (priority 2019, published 2022).

Like-named read-outs stand apart in the source and are kept apart here. {ppp} = triphosphate

The subject of this data set is HBV cccDNA. Description: HBV cccDNA formation in infected HepG2-hNTCP cells (Hirt extraction, Southern blot, RT-qPCR). Format: cell-based, HBV (Genotype D). The settings on record: harvested 3 dpi; for level of protein free-relaxed circular (PF-RC) DNA, Southern blot / HBV cccDNA formation, Southern blot: HepG2-hNTCP, treated following HBV infection; for HBV cccDNA formation, Southern blot: versus DMSO or X-RNA controls; for IC50 / IC90: HBV 1000 Geq/cell; for IC50: read-out: IC50, decline of cccDNA relative to DMSO treated controls; for IC90: read-out: IC90, decline of cccDNA relative to DMSO treated controls. How it is done:
The scheme illustrates the schedule with HBV inoculum (1000 Geq/cell) and administration of Cyclosporin A (CsA), F7, X-RNA and poly-U/UC PAMP. 2.5% DMSO was added to the medium at 1 day post infection (Dpi). cccDNA and PF RC DNA were harvested from HepG2-hNTCP cells using Hirt extraction method and analyzed by Southern blot analysis using an HBV-specific DNA probe. Viral protein-free DNAs (protein-free Relaxed Circular DNA [PF-RC DNA] and cccDNA) are noted. (2B and 2C) HepG2-hNTCP 2(B) or differentiated HepaRG cells (2C) were infected with HBV at moi of 1000 Geq/cell, and administered CsA (10 μM) or F7, in the indicated concentrations. For upper panels of (2B) and (2C), DNAs were isolated after Hirt extraction at 3 dpi and subjected to Southern blot analysis using as HBV-DNA probe. […] (2D and 2E) HepG2-hNTCP (2D) or dHepaRG cells (2E) were infected with HBV at an moi of 1000 Geq/cell, and administered CsA (10 μM), X-RNA (100 ng/ml), or poly-U/UC PAMP in the indicated concentrations. For upper panels of (2D) and (2E), DNAs were analyzed using Southern blot analysis. For lower panels of (2D) and (2E), DNAs were analyzed by RT-qPCR. IC90, and IC50 values were calculated based on the decline of the cccDNA relative to DMSO treated controls. IC90, and IC50 values are the average of three experiments±one standard deviation. […] Positions of mass markers are indicated on each Southern blot.
To determine how IRF3 activation impacts HBV infection and production of cccDNA in infected cells, HepG2-hNTCP cells were treated with F7 or poly-U/UC PAMP (100 ng/ml [=2.94 nM] or 200 ng/ml [=5.87 nM]) following HBV infection. Cyclosporin A (CsA) treatment was employed as an HBV entry inhibitor antiviral control (Watashi, K., et al. (2014). Cyclosporin A and its analogs inhibit hepatitis B virus entry into cultured hepatocytes through targeting a membrane transporter, sodium taurocholate cotransporting polypeptide (NTCP). Hepatology (Baltimore, Md.) 59, 1726-1737). Cells were harvested 3 days post-infection (dpi) and extracts were prepared using Hirt extraction methods for isolating protein-free DNA, as shown in FIG. 2A (Guo, H., et al. (2007). Characterization of the Intracellular Deproteinized Relaxed Circular DNA of Hepatitis B Virus: an Intermediate of Covalendy Closed Circular DNA Formation. Journal of Virology 81, 12472-12484 Hirt, B. (1967). Selective extraction of polyoma DNA from infected mouse cell cultures. Journal of molecular biology 26, 365-369).
HBV infection HBV (Genotype D) was purified from the supernatant of HepAD38 cells by PEG concentration and subsequent sucrose gradient, as described previously (Ko, C., et al. (2014). DDX3 DEAD-Box RNA Helicase Is a Host Factor That Restricts Hepatitis B Virus Replication at the Transcriptional Level. Journal of Virology 88, 13689-13698; Watashi, K., et al. (2013), supra). For HBV infection cells were seeded into collagen-coated plates. One day later, the cells were infected with HBV in DMEM containing 4% polyethylene glycol 8000 (PEG-8000). The multiplicities of infection (expressed as virus genome equivalent/cell) are indicated in each Figure Legend. The inocula were removed 24 hours later, and the infected cultures were maintained in complete DMEM containing 2.5% DMSO until harvesting, as described previously (Ni, Y., et al. (2014). Hepatitis B and D viruses exploit sodium taurocholate co-transporting polypeptide for species-specific entry into hepatocytes. Gastroenterology 146, 1070-1083).
Reverse transcription quantitative real time qPCR (RT-qPCR) analysis: Total cellular RNAs were extracted from cells using TRIZOL reagent and the manufacturers protocol (Invitrogen). cDNA was synthesized from the purified RNA by both random and oligo (dT) priming using iScript select cDNA synthesis kit (Biorad, Inc.). For HBV cccDNA expression analysis, total DNA was extracted using the DNeasy kit (QIAGEN).
(In general: Real-time PCR tracks product formation cycle by cycle.)

[1] abbreviates: Hepatitis B virus, HepG2-hNTCP cells.

With `O=C(Nc1ccc2nc(NC(=O)c3ccc4ccccc4c3)sc2c1)c1ccccc1` [F7, N-(6-benzamido-1,3-benzothiazol-2-yl)naphthalene-2-carboxamide], the “level of protein free-relaxed circular (PF-RC) DNA, Southern blot” value is listed as “markedly decreased” and the “HBV cccDNA formation, Southern blot” value is on record as “suppressed HBV cccDNA formation”. Under setting [1], the IC50 was approximately 8.48 µM and the IC90 is approximately 17.4 µM.

B1: poly-U/UC PAMP: ~100 nt PAMP motif from the HCV genome comprising 5′ppp and the poly U/UC region, recognized by RIG-I; formulated in liposome (nucleic acid)
chain: GGCCAUCCUGUUUUUUUCCCUUUUUUUUUUUCUUUUUUUUUUUUUUUUUUUUUUUUUUUUUUUUUUCUCCUUUUUUUUUCCUCUUUUUUUCCUUUUCUUUCCUUU
modifications: RNA, 5' {ppp}, backbone and methylation of C not given here; formulated in liposome
notes: ~100 nt PAMP motif from the HCV genome comprising 5′ppp and the poly U/UC region, recognized by RIG-I; formulated in liposome
As to B1, the “level of protein free-relaxed circular (PF-RC) DNA, Southern blot” value was “markedly decreased” and the “HBV cccDNA formation, Southern blot” value was “suppressed HBV cccDNA formation”. Under “HepG2-NTCP cells”, the IC50 was approximately 0.00194 µM and the IC90 was approximately 0.012 µM.

One may read the IC50 as the midpoint of a concentration-inhibition curve. The term IC90 denotes the concentration at which the effect reaches the 90% level.
